PubChem BioAssay AID290 (DTP/NCI, 2004)
Several values for one entry are separate records, joined by “and”; a condition that tells them apart may be missing. Equal values may be shown once. Records with an inconclusive call do not appear.

System: mice, P1798 lymphosarcoma sc, survival or tumor weight T/C
Test: NCI In Vivo Anticancer Drug Screen. Data for tumor model P1798 Lymphosarcoma (subcutaneous) in unknown mice
Procedure: The antitumor activity of compounds was measured in mice bearing transplantable tumors. Survival or tumor size were measured and the results are expressed as the measurement made in the treated group (T) divided by the measurement made in the vehicle treated control group (C). The tumor model used in this assay is P1798 Lymphosarcoma (subcutaneous) in unknown mice

C[C@]12C=CC(=O)C=C1CC[C@@H]1[C@@H]2C(=O)C[C@@]2(C)[C@H]1CC[C@]2(O)C(=O)CO
T/C (endpoint: mean tumor weight, dose: 0.31 mg/kg/injection, schedule: Q01DX010 (sc), vehicle: steriod suspending solution, higher = larger tumour): 81 % of control | T/C (endpoint: mean tumor weight, dose: 0.62 mg/kg/injection, schedule: Q01DX010 (sc), vehicle: steriod suspending solution, higher = larger tumour): 124 % of control | T/C (endpoint: mean tumor weight, dose: 3.1 mg/kg/injection, schedule: Q01DX010 (sc), vehicle: steriod suspending solution, higher = larger tumour): 82 % of control | T/C (endpoint: mean tumor weight, dose: 5.0 mg/kg/injection, schedule: Q01DX010 (sc), vehicle: steriod suspending solution, higher = larger tumour): 59 % of control | T/C (endpoint: mean tumor weight, dose: 6.25 mg/kg/injection, schedule: Q01DX010 (sc), vehicle: steriod suspending solution, higher = larger tumour): 99 % of control | T/C (endpoint: mean tumor weight, dose: 10.0 mg/kg/injection, schedule: Q01DX010 (sc), vehicle: steriod suspending solution, higher = larger tumour): 83 % of control | T/C (endpoint: mean tumor weight, dose: 10.0 mg/kg/injection, schedule: Q01DX010 (sc), vehicle: water, higher = larger tumour): 105 % of control | T/C (endpoint: mean tumor weight, dose: 20.0 mg/kg/injection, schedule: Q01DX010 (sc), vehicle: steriod suspending solution, higher = larger tumour): 68 % of control and 74 % of control | T/C (endpoint: mean tumor weight, dose: 20.0 mg/kg/injection, schedule: Q01DX010 (sc), vehicle: water, higher = larger tumour): 108 % of control | T/C (endpoint: mean tumor weight, dose: 40.0 mg/kg/injection, schedule: Q01DX010 (sc), vehicle: water, higher = larger tumour): 100 % of control | T/C (endpoint: mean tumor weight, dose: 60.0 mg/kg/injection, schedule: Q01DX001 (sc), vehicle: steriod suspending solution, higher = larger tumour): 87 % of control | T/C (endpoint: mean tumor weight, dose: 120.0 mg/kg/injection, schedule: Q01DX001 (sc), vehicle: steriod suspending solution, higher = larger tumour): 34 % of control | T/C (endpoint: median survival time, dose: 2.34 mg/kg/injection, schedule: Q01DX029 (ip), vehicle: saline, higher = longer survival): 82 % of control | T/C (endpoint: median survival time, dose: 4.67 mg/kg/injection, schedule: Q01DX025 (ip), vehicle: saline, higher = longer survival): 96 % of control | T/C (endpoint: median survival time, dose: 9.35 mg/kg/injection, schedule: Q01DX025 (ip), vehicle: saline, higher = longer survival): 100 % of control | T/C (endpoint: median survival time, dose: 9.35 mg/kg/injection, schedule: Q01DX029 (ip), vehicle: saline, higher = longer survival): 98 % of control | T/C (endpoint: median survival time, dose: 9.37 mg/kg/injection, schedule: Q01DX029 (ip), vehicle: saline, higher = longer survival): 89 % of control | T/C (endpoint: median survival time, dose: 18.7 mg/kg/injection, schedule: Q01DX025 (ip), vehicle: saline, higher = longer survival): 88 % of control | T/C (endpoint: median survival time, dose: 18.75 mg/kg/injection, schedule: Q01DX010 (ip), vehicle: saline, higher = longer survival): 101 % of control | T/C (endpoint: median survival time, dose: 37.5 mg/kg/injection, schedule: Q01DX025 (ip), vehicle: saline, higher = longer survival): 75 % of control | T/C (endpoint: median survival time, dose: 75.0 mg/kg/injection, schedule: Q01DX010 (sc), vehicle: saline, higher = longer survival): 153 % of control | T/C (endpoint: median survival time, dose: 75.0 mg/kg/injection, schedule: Q01DX025 (ip), vehicle: saline, higher = longer survival): 59 % of control | T/C (endpoint: median survival time, dose: 150.0 mg/kg/injection, schedule: Q01DX010 (sc), vehicle: saline, higher = longer survival): 47 % of control | T/C (endpoint: median survival time, dose: 150.0 mg/kg/injection, schedule: Q01DX025 (ip), vehicle: saline, higher = longer survival): 46 % of control | T/C (endpoint: median survival time, dose: 150.0 mg/kg/injection, schedule: Q01DX029 (ip), vehicle: saline, higher = longer survival): 42 % of control | T/C (endpoint: median survival time, dose: 300.0 mg/kg/injection, schedule: Q01DX010 (sc), vehicle: saline, higher = longer survival): 39 % of control | T/C (endpoint: median survival time, dose: 600.0 mg/kg/injection, schedule: Q01DX010 (sc), vehicle: saline, higher = longer survival): 34 % of control

CCCCn1cnc2c(=S)nc[nH]c21
T/C (endpoint: mean tumor weight, dose: 50.0 mg/kg/injection, schedule: Q01DX010 (ip), vehicle: carboxymethylcellulose (CMC), higher = larger tumour): 78 % of control | T/C (endpoint: mean tumor weight, dose: 100.0 mg/kg/injection, schedule: Q01DX010 (ip), vehicle: carboxymethylcellulose (CMC), higher = larger tumour): 43 % of control

Clc1ccc(C(c2ccccc2Cl)C(Cl)Cl)cc1 (configuration not stated)
T/C (endpoint: mean tumor weight, dose: 62.5 mg/kg/injection, schedule: Q01DX010 (sc), vehicle: steriod suspending solution, higher = larger tumour): 85 % of control | T/C (endpoint: mean tumor weight, dose: 125.0 mg/kg/injection, schedule: Q01DX010 (sc), vehicle: steriod suspending solution, higher = larger tumour): 73 % of control | T/C (endpoint: mean tumor weight, dose: 250.0 mg/kg/injection, schedule: Q01DX010 (sc), vehicle: steriod suspending solution, higher = larger tumour): 105 % of control | T/C (endpoint: mean tumor weight, dose: 500.0 mg/kg/injection, schedule: Q01DX010 (sc), vehicle: steriod suspending solution, higher = larger tumour): 103 % of control

O=c1cnn(C2OC(CO)C(O)C2O)c(=O)[nH]1 (configuration not stated)
T/C (endpoint: mean tumor weight, dose: 125.0 mg/kg/injection, schedule: Q01DX010 (ip), vehicle: water, higher = larger tumour): 93 % of control | T/C (endpoint: mean tumor weight, dose: 250.0 mg/kg/injection, schedule: Q01DX010 (ip), vehicle: water, higher = larger tumour): 67 % of control | T/C (endpoint: mean tumor weight, dose: 500.0 mg/kg/injection, schedule: Q01DX010 (ip), vehicle: water, higher = larger tumour): 77 % of control | T/C (endpoint: mean tumor weight, dose: 1000.0 mg/kg/injection, schedule: Q01DX010 (ip), vehicle: water, higher = larger tumour): 75 % of control
